Experimental data from ChEMBL document CHEMBL4382259, “Synthesis of novel guttiferone E and xanthochymol derivatives with cytotoxicities by inducing cell apoptosis and arresting the cell cycle phase” (Eur J Med Chem, 2019).

What was measured:
Assay type in all cases: functional, cell-based
HEL = experiment: Antiproliferative activity against HEL cells after 72 hrs by MTT assay; conditions: Homo sapiens
K562 = experiment: Antiproliferative activity against human K562 cells after 72 hrs by MTT assay; conditions: K562, 72 h
HeLa = experiment: Antiproliferative activity against human HeLa cells after 72 hrs by MTT assay
MCF7 = experiment: Antiproliferative activity against human MCF7 cells after 72 hrs by MTT assay; conditions: MCF7, 72 h
A549 = experiment: Antiproliferative activity against human A549 cells after 72 hrs by MTT assay; conditions: A549, 72 h

Row | SMILES | IC50 (HEL) | IC50 (K562) | IC50 (HeLa) | IC50 (MCF7) | IC50 (A549)
1 | CC(C)=CC[C@H]1C[C@@]23C[C@@H](CC=C(C)C)C(C)(C)[C@@](CC=C(C)C)(C(=O)C(C(=O)c4ccc(OCc5ccccc5)c(O)c4)=C2OC1(C)C)C3=O | > 20 µM | > 20 µM | 15.9 µM | > 20 µM | 10.6 µM
2 | COc1ccc(C(=O)C2=C3OC(C)(C)[C@@H](CC=C(C)C)C[C@@]34C[C@@H](CC=C(C)C)C(C)(C)[C@@](CC=C(C)C)(C2=O)C4=O)cc1OC | > 20 µM | > 20 µM | 19.7 µM | > 20 µM | > 20 µM
3 | CC(C)=CC[C@H]1C[C@]23C[C@@H](CC=C(C)C)C(C)(C)[C@H]4CCC(C)(C)O[C@]42OC(=O)C(C(=O)c2ccc(OC(=O)c4ccc(F)cc4)c(OC(=O)c4ccc(F)cc4)c2)=C3OC1(C)C | > 20 µM | > 20 µM | 11.9 µM | 16.8 µM | 11.7 µM
4 | CC(=O)Oc1ccc(C(=O)C2=C3OC(C)(C)[C@@H](CC=C(C)C)C[C@@]34C[C@@H](CC=C(C)C)C(C)(C)[C@H]3CCC(C)(C)O[C@]34OC2=O)cc1OC(C)=O | > 20 µM | > 20 µM | 5.32 µM | 4.83 µM | 12.3 µM
5 | CC(C)=CC[C@H]1C[C@@]23C[C@@H](CC=C(C)C)C(C)(C)[C@@](CC=C(C)C)(C(=O)C(C(=O)c4ccc(OC(=O)c5cccs5)c(OC(=O)c5cccs5)c4)=C2OC1(C)C)C3=O | > 20 µM | > 20 µM | 8.8 µM | 16.5 µM | 20 µM
6 | CC(C)=CC[C@H]1C[C@]23C[C@@H](CC=C(C)C)C(C)(C)[C@H]4CCC(C)(C)O[C@]42OC(=O)C(C(=O)c2ccc(OC(=O)c4ccccc4)c(OC(=O)c4ccccc4)c2)=C3OC1(C)C | > 20 µM | > 20 µM | > 20 µM | > 20 µM | > 20 µM
7 | C=C(C)[C@@H](CC=C(C)C)C[C@]12C[C@@H](CC=C(C)C)C(C)(C)[C@](CC=C(C)C)(C1=O)c1oc3cc(O)c(O)cc3c(=O)c1C2=O | > 20 µM | > 20 µM | > 20 µM | > 20 µM | > 20 µM
